From patent US6833456B2, “Indolyl-urea derivatives of thienopyridines useful as antiangiogenic agents, and methods for their use” (Agouron Pharmaceuticals, Inc., priority 2002, dated 2004)
“And” between values parts separate entries of the source, which are not always exact repeats. Equal entries are not always repeated.

Experiments:
[1] = target: T1, PDGFRβ (Homo sapiens, UniProt P09619); assay: PAE-PDGFRβ phosphorylation in PAE-PDGFRB cells assay; assay type: cell-based; settings: PAE cells overexpressing human PDGFRβ, PDGF-BB stimulated; read-out: PAE PDGFR autophos IC50
T1 construct: expressed in transfected cells; host or cells: porcine aorta endothelial (PAE) cells
Experimental: This assay determines the ability of a test compound to inhibit the autophosphorylation of PDGFRβ in porcine aorta endothelial (PAE)-PDGFRβ cells. PAE cells that overexpress human PDGFRβ were used in this assay. The cells were cultured in Ham's F12 media supplemented with 10% fetal bovine serum (FBS) and 400 ug/ml G418. Twenty thousands cells were seeded in each well of a 96-well plate in 50 μL of growth media and allowed to attach for 6 hours at 37° C. Cells were then exposed to the starvation media (Ham's F12 media supplemented with 0.1% FBS) for 16 hours. After the starvation period was over, 10 μL of test agent in 5% DMSO in starvation media were added to the test wells and 10 μL of the vehicle (5% DMSO in starvation media) were added into the control wells. The final DMSO concentration in each well was 0.5%. Plates were incubated at 37° C. for 1 hour and the cells were then stimulated with 1 μg/mL PDGF-BB (R & D System) in the presence of 2 mM Na3VO4 for 8 minutes. The cells were washed once with 1 mm Na3VO4 in HBSS and lysed by adding 50 μL per well of lysis buffer. One hundred μL of dilution buffer were then added to each well and the diluted cell lysate was transferred to a 96-well goat ant-rabbit coated plate (Pierce), which was pre-coated with Rabbit anti Human PDGFRβ antibody (Santa Cruz). The plates were incubated at room temperature for 2 hours and washed seven times with 1% Tween 20 in PBS. HRP-PY20 (Santa Cruz) was diluted and added to the plate for a 30-minute incubation. Plates were then washed again and TMB peroxidase substrate (Kirkegaard & Perry) was added for a 10-minute incubation. One hundred μL of 0.09 N H2SO4 was added into each well of the 96-well plate to stop the reaction. Phosphorylation status was assessed by spectrophotometer reading at 450 nm. IC50 values were calculated by curve fitting using a four-parameter analysis.

[2] = tested on: human umbilical vein endothelial cells (HUVEC); assay: HUVEC+VEGF proliferation assay; assay type: cell-based; settings: Homo sapiens, HUVEC, 72 h, VEGF 6 ng/mL, MTT
Experimental: This assay determines the ability of a test compound to inhibit the growth factor-stimulated proliferation of human umbilical vein endothelial cells (“HUVEC”). HUVEC cells (passage 3-4, Clonetics, Corp.) were thawed into EGM2 culture medium (Clonetics Corp) in T75 flasks. Fresh EGM2 medium was added to the flasks 24 hours later. Four or five days later, cells were exposed to another culture medium (F12K medium supplemented with 10% fetal bovine serum (FBS), 60 μg/mL endothelial cell growth supplement (ECGS), and 0.1 mg/mL heparin). Exponentially-growing HUVEC cells were used in experiments thereafter. Ten to twelve thousand HUVEC cells were plated in 96-well dishes in 100 μl of rich, culture medium (described above). The cells were allowed to attach for 24 hours in this medium. The medium was then removed by aspiration and 105 μl of starvation media (F12K+1% FBS) was added to each well. After 24 hours, 15 μl of test agent dissolved in 1% DMSO in starvation medium or this vehicle alone was added into each treatment well; the final DMSO concentration was 0.1%. One hour later, 30 μl of VEGF (30 ng/mL) in starvation media was added to all wells except those containing untreated controls; the final VEGF concentration was 6 ng/mL. Cellular proliferation was quantified 72 hours later by MTT dye reduction, at which time cells were exposed for 4 hours MTT (Promega Corp.). Dye reduction was stopped by addition of a stop solution (Promega Corp.) and absorbance at 595 nm was determined on a 96-well spectrophotometer plate reader.

[3] = target: T2, unphosphorylated VEGF-R2Δ50 (FLVK) (Homo sapiens, UniProt P35968, DEL940-989/E990V); assay: VEGF-R2 coupled spectrophotometric assay, unphosphorylated construct (FLVK); assay type: biochemical; settings: for inhibition at 0.05 µM: percent inhibition at 50 nM
T2 construct: VEGF-R2Δ50 contains residues 806-939 and 990-1171; made in house; host or cells: baculovirus/insect cell system
Description: This construct determines the ability of a test compound to inhibit tyrosine kinase activity. A construct (VEGF-R2Δ50) of the cytosolic domain of human vascular endothelial growth factor receptor 2 (VEGF-R2) lacking the 50 central residues of the 68 residues of the kinase insert domain was expressed in a baculovirus/insect cell system. Of the 1356 residues of full-length VEGF-R2, VEGF-R2Δ50 contains residues 806-939 and 990-1171, and also one point mutation (E990V) within the kinase insert domain relative to wild-type VEGF-R2. Autophosphorylation of the purified construct was performed by incubation of the enzyme at a concentration of 4 μM in the presence of 3 mM ATP and 40 mM MgCl2 in 100 mM HEPES, pH 7.5, containing 5% glycerol and 5 mM DTT, at 4° C. for 2 h. […] See Parast et al., Biochemistry, 37, 16788-16801 (1998).
The production of ADP from ATP that accompanies phosphoryl transfer was coupled to oxidation of NADH using phosphoenolpyruvate (PEP) and a system having pyruvate kinase (PK) and lactic dehydrogenase (LDH). The oxidation of NADH was monitored by following the decrease of absorbance at 340 nm ([…]=6.22 cm^−1 mM^−1) using a Beckman DU 650 spectrophotometer. Assay conditions for phosphorylated VEGF-R2Δ50 (indicated as FLVK-P in the tables below) were the following: 1 mM PEP; 250 μM NADH; 50 units of LDH/mL; 20 units of PK/mL; 5 mM DTT; […]; 1 mM ATP; and 25 mM MgCl2 in 200 mM HEPES, pH 7.5. Assay conditions for unphosphorylated VEGF-R2Δ50 (indicated as FLVK in the tables) were the following: 1 mM PEP; 250 μM NADH; 50 units of LDH/mL; 20 units of PK/mL; 5 mM DTT; […]; 3 mM ATP; and 60 mM MgCl2 and 2 mM MnCl2 in 200 mM HEPES, pH 7.5. Assays were initiated with 5 to 40 nM of enzyme. Ki values were determined by measuring enzyme activity in the presence of varying concentrations of test compounds. The percent inhibition at 50 nm (% inhibition@ 50 nm) was determined by linear least-squares regression analysis of absorbance as a function of time. The binding inhibitions were fitted to equation as described by Morrison. The data were analyzed using Enzyme Kinetic and Kaleidagraph software.

T1 sequence (P09619 33-1106): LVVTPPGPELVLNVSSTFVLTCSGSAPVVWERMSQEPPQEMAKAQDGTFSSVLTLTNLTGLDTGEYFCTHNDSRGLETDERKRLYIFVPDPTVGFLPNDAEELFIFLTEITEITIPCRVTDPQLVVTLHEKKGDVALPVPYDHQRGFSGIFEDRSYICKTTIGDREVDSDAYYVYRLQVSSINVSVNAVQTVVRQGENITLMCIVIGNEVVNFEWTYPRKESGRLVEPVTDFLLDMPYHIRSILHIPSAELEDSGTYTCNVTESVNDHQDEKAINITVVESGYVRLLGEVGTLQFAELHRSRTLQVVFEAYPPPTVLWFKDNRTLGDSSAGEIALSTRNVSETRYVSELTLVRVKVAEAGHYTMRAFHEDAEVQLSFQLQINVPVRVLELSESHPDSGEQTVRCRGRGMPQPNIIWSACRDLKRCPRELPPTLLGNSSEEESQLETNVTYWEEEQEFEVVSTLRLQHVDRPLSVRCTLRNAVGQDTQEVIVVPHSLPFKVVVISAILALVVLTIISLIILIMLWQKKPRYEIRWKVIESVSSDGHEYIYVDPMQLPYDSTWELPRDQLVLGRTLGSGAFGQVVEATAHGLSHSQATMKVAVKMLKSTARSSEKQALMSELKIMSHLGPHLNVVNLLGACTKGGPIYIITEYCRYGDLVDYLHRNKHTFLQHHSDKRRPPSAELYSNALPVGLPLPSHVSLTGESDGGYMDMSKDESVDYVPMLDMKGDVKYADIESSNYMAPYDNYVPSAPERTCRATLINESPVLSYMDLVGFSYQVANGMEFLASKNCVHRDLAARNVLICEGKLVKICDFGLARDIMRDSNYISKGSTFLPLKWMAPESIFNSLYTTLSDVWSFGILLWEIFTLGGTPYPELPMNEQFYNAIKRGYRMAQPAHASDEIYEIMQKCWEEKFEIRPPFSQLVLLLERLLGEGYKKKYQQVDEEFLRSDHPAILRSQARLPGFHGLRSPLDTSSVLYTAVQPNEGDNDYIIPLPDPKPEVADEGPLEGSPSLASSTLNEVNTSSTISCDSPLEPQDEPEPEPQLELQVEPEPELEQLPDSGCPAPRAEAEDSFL
T2 sequence (P35968 with tags, fused parts or gaps DEL940-989/E990V limits assumed): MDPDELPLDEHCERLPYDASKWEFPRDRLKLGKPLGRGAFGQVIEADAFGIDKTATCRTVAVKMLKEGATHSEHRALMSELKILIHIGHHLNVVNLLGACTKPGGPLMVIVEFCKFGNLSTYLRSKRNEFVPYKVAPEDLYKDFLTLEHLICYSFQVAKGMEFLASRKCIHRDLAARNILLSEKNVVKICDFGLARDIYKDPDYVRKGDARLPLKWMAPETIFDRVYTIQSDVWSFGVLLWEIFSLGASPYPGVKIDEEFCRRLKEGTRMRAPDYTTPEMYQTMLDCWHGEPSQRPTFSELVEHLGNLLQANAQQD

IC50 [1]	Ki [3] [nM]	inhibition at 0.05 µM [3] [%]	Structure (SMILES)	IC50 [2] [nM]
3.8 nM	0.16	99	CNC(=O)n1c(C)cc2c(F)c(Oc3ccnc4cc(C(=O)N5CCC[C@H]5COC)sc34)ccc21 [Example 5a, 4-Fluoro-5-[2-(2S-methoxymethyl-pyrrolidine-1-carbonyl)-thieno[3,2-b]pyridin-7-yloxy]-2-methyl-indole-1-carboxylic acid methylamide]	0.14
–	0.525	97	CNC(=O)n1c(C)cc2c(F)c(Oc3ccnc4cc(C(=O)N5CC[C@H](O)C5)sc34)ccc21 [Example 5i, 4-Fluoro-5-[2-(3S-hydroxy-pyrrolidine-1-carbonyl)-thieno[3,2-b]pyridin-7-yloxy]-2-methyl-indole-1-carboxylic acid methylamide]	0.11
28.6 nM	0.428	98	C#CCNC(=O)n1c(C)c(Cl)c2c(F)c(Oc3ccnc4cc(C(=O)N5CC[C@H](OC)C5)sc34)ccc21 [Example 6a, 3-Chloro-4-fluoro-5-[2-(3S-methoxy-pyrrolidine-1-carbonyl)-thieno[3,2-b]pyridin-7-yloxy]-2-methyl-indole-1-carboxylic acid prop-2-ynylamide]	0.427
26 nM and 34 nM	0.477	99	Cc1cc2cc(Oc3ccnc4cc(C(=O)N5CC[C@@H](N(C)C)C5)sc34)ccc2n1C(=O)NCCCO [Example 8i, 5-[(2-{[(3R)-3-(Dimethylamino)pyrrolidin-1-yl]carbonyl}thieno[3,2-b]pyridin-7-yl)oxy]-N-(3-hydroxypropyl)-2-methyl-1H-indole-1-carboxamide]	0.17
4.5 nM	0.004	99	CNC(=O)n1c(C)cc2cc(Oc3ccnc4cc(C(=O)N5CCC5)sc34)ccc21 [Example 8m, 5-[2-(Azetidine-1-carbonyl)-thieno[3,2-b]pyridin-7-yloxy]-2-methyl-indole-1-carboxylic acid methylamide]	0.084
13 nM	0.667	84	CO[C@H]1CCN(C(=O)c2cc3nccc(Oc4ccc5c(c4)cc(C)n5C(=O)NCC#N)c3s2)C1 [Example 9f, 5-[2-(3S-Methoxy-pyrrolidine-1-carbonyl)-thieno[3,2-b]pyridin-7-yloxy]-2-methyl-indole-1-carboxylic acid cyanomethyl-amide]	0.68
31 nM	0.258	99	CCNC(=O)n1c(C)cc2cc(Oc3ccnc4cc(C(=O)N5CC[C@H](O)C5)sc34)ccc21 [Example 9h, 5-[2-(3S-Hydroxy-pyrrolidine-1-carbonyl)-thieno[3,2-b]pyridin-7-yloxy]-2-methyl-indole-1-carboxylic acid ethylamide]	0.9

The next lines start with the compound.

Structure (SMILES)	IC50 [1]	Ki [3] [nM]	inhibition at 0.05 µM [3] [%]	IC50 [2] [nM]
CNC(=O)n1c(C)cc2cc(Nc3ccnc4cc(C(=O)N5CC[C@H](OC)C5)sc34)ccc21 [Example 1g, 5-[2-(3S-Methoxy-pyrrolidine-1-carbonyl)-thieno[3,2-b]pyridin-7-ylamino]-2-methyl-indole-1-carboxylic acid methylamide]	95 nM and 152 nM	–	–	1
C#CCNC(=O)n1c(C)cc2cc(Nc3ccnc4cc(C(=O)N5CC[C@H](O)C5)sc34)ccc21 [Example 1j, 5-[2-(3S-Hydroxy-pyrrolidine-1-carbonyl)-thieno[3,2-b]pyridin-7-ylamino]-2-methyl-indole-1-carboxylic acid prop-2-ynylamide]	–	0.72	96	0.149
CNC(=O)n1c(C)cc2cc(Nc3ccnc4cc(C(=O)N5C[C@H](OC)[C@@H](OC)C5)sc34)ccc21 [Example 1r, 5-[2-(3S,4S-Dimethoxy-pyrrolidine-1-carbonyl)-thieno[3,2-b]pyridin-7-ylamino]-2-methyl-indole-1-carboxylic acid methylamide]	155 nM and 120 nM	0.64	93	0.301
Cc1cc2cc(Nc3ccnc4cc(C(=O)N5C[C@H](O)C[C@H]5C(C)(C)O)sc34)ccc2n1C(=O)NC1CC1 [Example 3e]	–	2.1	87	4.9
CNC(=O)n1c(C)cc2cc(Nc3cccc4cc(C(=O)N5C[C@H](O)C[C@H]5CO)sc34)ccc21 [Example 3i, 5-[2-((2S,4R)-4-Hydroxy-2-hydroxymethyl-pyrrolidine-1-carbonyl)-benzo[b]thiophen-7-ylamino]-2-methyl-indole-1-carboxylic acid methylamide]	–	4.17	74	5.5
CO[C@H]1CCN(C(=O)c2cc3nccc(Oc4ccc5c(c4)cc(C)n5C(=O)NCC#CC4CC4)c3s2)C1 [Example 4i, 5-[2-(3S-Methoxy-pyrrolidine-1-carbonyl)-thieno[3,2-b]pyridin-7-yloxy]-2-methyl-indole-1-carboxylic acid (3-cyclopropyl-prop-2-ynyl)-amide]	5.5 nM	1.56	97	0.569
CO[C@@H]1CCN(C(=O)c2cc3nccc(Oc4ccc5c(c4)cc(C)n5C(=O)NCC#CC4CC4)c3s2)C1 [Example 4m, 5-[2-(3R-Methoxy-pyrrolidine-1-carbonyl)-thieno[3,2-b]pyridin-7-yloxy]-2-methyl-indole-1-carboxylic acid (3-cyclopropyl-prop-2-ynyl)-amide]	3.8 nM	0.271	99	0.37
